Laboratory results: patent US20160050958A1, “IMPROVED SWEETENER” (TATE & LYLE INGREDIENTS AMERICAS LLC, priority 2013, published 2016)

Columns and labels:
[1] = Round table sweetness evaluation by test panelists (SEV determination against sucrose references); settings: samples made to equal sweet 10 SEV in neutral pH water, room temperature; references 4-14% sucrose
Experimental: Round table evaluations were performed with test panelists. Equal sweet 10 SEV concentrations in neutral pH water were made for allulose, AceK and fructose, as well as a composition comprising allulose, AceK and fructose. The components of the test compositions are described in the below tables. The mixed compositions were calculated using the Beidler mixture equation for the sweeteners. The Beidler mixture equation for sweeteners is as follows: […]
The concentration of each component in the mixture in ppm is divided by SEV (c/R) and is plotted against concentration, c. The slope of the linear regression is […]. The y-intercept of the linear regression multiplied by Rmax is the half-maximal sweetness concentration, 1/K. Rmax and 1/K are the two parameters used in the Beidler equation
The equal-molar mixture was tested against reference samples for the panelists to determine SEV values. […] The test samples were served in 2 ounce soufflé cups (approximately 60 ml) coded with 3-digit codes at room temperature. A two minute wait period between samples was enforced. Water and unsalted crackers was available for the panelists to clear their palates before and during testing. EyeQuestion was used for ballot development and recording of results. Results were collected in EyeQuestion for calculating approximate SEV level of each test sample.
The test products analyzed in this experiment are described below in Table 1.

[2] = % of the sweetness of sucrose; cited from earlier work

For O=C(CO)[C@@H](O)[C@H](O)[C@H](O)CO [Fructose, fructose], the “Mean sucrose equivalent value (SEV)” value [1] was 10.14 and the “Median sucrose equivalent value (SEV)” value [1] was 10.

In the case of O=C(CO)C(O)C(O)C(O)CO (stereo not shown) [Allulose, allulose], the “Mean sucrose equivalent value (SEV)” value [1] is given as 10.14, the “Median sucrose equivalent value (SEV)” value [1] is given as 10 and the “Sweetness relative to sucrose” value [2] is given as “around 70%”.

For CC1=CC(=O)[N-]S(=O)(=O)O1.[K+] [AceK, potassium salt of 6-methyl-1,2,3-oxathiazine-4(3H)-one 2,2-dioxide], the “Mean sucrose equivalent value (SEV)” value [1] was 9.286 and the “Median sucrose equivalent value (SEV)” value [1] was 8.
